These are literature values, as cited in US20150217002A1, “NEAR-INFRARED SPECTROSCOPY AND OPTICAL REPORTER” (THE RESEARCH FOUNDATION FOR THE STATE UNIVERSITY OF NEW YORK, priority 2012, published 2015).

The conditions of data set [1]: in blood excited with 800 nm light, 0.08 mg/L.
For data set [2] the following is noted: removed from the circulation system by the liver.

Turning to `CC1(C)C(/C=C/C=C/C=C/C=C2\N(CCCCS(=O)(=O)O)c3ccc4ccccc4c3C2(C)C)=[N+](CCCCS(=O)(=O)[O-])c2ccc3ccccc3c21` [ICG, indocyanine green], the quantum yield entry in data set [1] was “about 0.013”. In addition, the in vivo half-life entry in data set [2] is “about 3 minutes”.
